Test results taken from patent US9006139B2, “Active compound combinations” (Bayer Intellectual Property GmbH, priority 2009, dated 2015).
Where two headings read alike, the source gives them in different places.

Assays:
Format in all cases: in vivo
Alternaria solani = test: Alternaria test (tomatoes)/protective; conditions: Alternaria solani, 72 h, Table E, read-out: Efficacy in % found; for pest or weed control at 50 ppm: 50 ppm a.i.
Summary of the method: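 Protective test: young tomato plants were sprayed with compound in an acetone/dimethylacetamide emulsifier formulation diluted with water. After drying, plants were inoculated with Alternaria solani spores and kept at ~20 °C and 100% relative humidity. Scored 3 days post-inoculation as % efficacy, where 0% equals untreated control and 100% means no disease.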

Puccinia triticina = test: Puccinia triticina-test (wheat)/preventive; conditions: Table M; 500 ppm a.i.
Description: (§1) Solvent: 49 parts by weight of n,n-dimethylacetamid
(§2) Emulsifier: 1 part by weight of alkylaryl polyglycol ether
(§3) To produce a suitable preparation of active compound, 1 part by weight of active compound or active compound combination is mixed with the stated amounts of solvent and emulsifier, and the concentrate is diluted with water to the desired concentration. To test for preventive activity, young plants are sprayed with the preparation of active compound or active compound combination at the stated rate of application. After the spray coating has been dried, the plants are sprayed with a spore suspension of Puccinia triticina. The plants remain for 48 hours in an incubation cabinet at approximately 20° C. and a relative atmospheric humidity of approximately 100%. The plants are placed in the greenhouse at a temperature of approximately 20° C. and a relative atmospheric humidity of approximately 80%. The test is evaluated 8 days after the inoculation. 0% means an efficacy which corresponds to that of the untreated control, while an efficacy of 100% means that no disease is observed.

Phytophthora infestans = test: whole plant or invertebrate; conditions: Phytophthora infestans, 72 h; for pest or weed control at 12.5 ppm: 12.5 ppm a.i.; for pest or weed control at 50 ppm: 50 ppm a.i.; for pest or weed control at 10 ppm: 10 ppm a.i.; for pest or weed control at 20 ppm: 20 ppm a.i.
Septoria tritici = test: Septoria tritici-test (wheat)/preventive; conditions: Table H
Description: as §1, §2
as §3, with “suspension of Septoria tritici. The plants” for “suspension of Puccinia triticina. The plants”, “of approximately 100% and afterwards for 60 hours at approximately 15° C. in a translucent incubation cabinet at a relative atmospheric humidity of approximately 100%. The” for “of approximately 100%. The”, “of approximately 15° C. and” for “of approximately 20° C. and”, “is evaluated 21 days after” for “is evaluated 8 days after”

Venturia inaequalis = test: Venturia test (apples)/protective; conditions: Table D
Description: Solvent: 24.5 parts by weight of acetone
• 24.5 parts by weight of dimethylacetamide Emulsifier: 1 part by weight of alkylaryl polyglycol ether
To produce a suitable preparation of active compound, 1 part by weight of active compound is mixed with the stated amounts of solvent and emulsifier, and the concentrate is diluted with water to the desired concentration. To test for protective activity, young plants are sprayed with the preparation of active compound at the stated rate of application. After the spray coating has dried on, the plants are inoculated with an aqueous conidia suspension of the causal agent of apple scab (Venturia inaequalis) and then remain for 1 day in an incubation cabinet at approximately 20° C. and a relative atmospheric humidity of 100%. The plants are then placed in a greenhouse at approximately 21° C. and a relative atmospheric humidity of approximately 90%. The test is evaluated 10 days after the inoculation. 0% means an efficacy which corresponds to that of the control, while an efficacy of 100% means that no disease is observed.

[1] = read-out: Efficacy in % found, Table A, test 1
[2] = read-out: Efficacy in % found, Table A, test 5
[3] = read-out: Efficacy in % found, Table A, test 6

Cn1c(=O)c2sc3c(=O)n(C)c(=O)c3sc2c1=O [(I-1), 2,6-dimethyl-1H,5H-[1,4]dithiino[2,3-c:5,6-c′]dipyrrole-1,3,5,7(2H,6H)-tetrone]
pest or weed control at 12.5 ppm (Alternaria solani; test 1, 12.5 ppm a.i.): 0% | pest or weed control at 50 ppm (Alternaria solani; test 1): 45% | pest or weed control at 50 ppm (Alternaria solani; test 2): 50% | Efficacy in % found (Puccinia triticina): 10% | pest or weed control at 12.5 ppm (Phytophthora infestans; [1]): 0% | pest or weed control at 25 ppm (Phytophthora infestans; read-out: Efficacy in % found, Table A, test 1, 25 ppm a.i.): 5% | pest or weed control at 50 ppm (Phytophthora infestans; [1]): 18% | pest or weed control at 12.5 ppm (Phytophthora infestans; read-out: Efficacy in % found, Table A, test 2): 35% | pest or weed control at 50 ppm (Phytophthora infestans; read-out: Efficacy in % found, Table A, test 3): 36% | pest or weed control at 50 ppm (Phytophthora infestans; read-out: Efficacy in % found, Table A, test 4): 47% | pest or weed control at 10 ppm (Phytophthora infestans; [2]): 0% | pest or weed control at 20 ppm (Phytophthora infestans; [2]): 0% | pest or weed control at 10 ppm (Phytophthora infestans; [3]): 0% | pest or weed control at 20 ppm (Phytophthora infestans; [3]): 9% | pest or weed control at 40 ppm (Phytophthora infestans; read-out: Efficacy in % found, Table A, test 6, 40 ppm a.i.): 11% | pest or weed control at 12.5 ppm (Phytophthora infestans; read-out: Efficacy in % found, Table A, test 7): 39% | Efficacy in % found (Septoria tritici; 500 ppm a.i.): 30% | Efficacy in % found (Septoria tritici; 1000 ppm a.i.): 50% | Efficacy in % found (Venturia inaequalis; test 1, 12.5 ppm a.i.): 26% | Efficacy in % found (Venturia inaequalis; test 1, 25 ppm a.i.): 72% | Efficacy in % found (Venturia inaequalis; test 2, 12.5 ppm a.i.): 14%
